We go through 17 compounds from US20200385371A1 (Propellon Therapeutics Inc., priority 2017, published 2020).

In experiment [1] the target is T1, WDR5 (Homo sapiens, UniProt P61964). The experiment can be described thus: Fluorescence Polarization (FP) binding assay. In short, it runs like this:
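Buffer was pH 6.5 sodium phosphate (80 mM) with 20 mM KCl and 0.008% Triton X-100; 9-Ala-FAM probe at 20 nM used 0.05 μM WDR5 and 480/540 nm polarization, H3 (1-15) probe at 30 nM used 0.3 μM WDR5 and 485/528 nm. Quadruplicate data were hyperbola-fitted to give Kdisp.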

Another experiment concerns MV4-11 cells. Nature of the experiment: Cell proliferation assay (ATPlite). Format: cell-based. As to conditions: Homo sapiens, 120 h; MV4-11 cells, five days; read-out: GI MV411 EC50. In short, it runs like this:
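ATPlite luminescence after five days' culture (37° C, 5% CO2) gives viability. Compounds dosed in 10 concentrations up to 10 μM against DMSO; 1,000 cells/well seeded in Alpha-MEM/10% FBS.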
For orientation: ATP-based viability assays read luminescence as a measure of living cells.

Experiment [2] addresses T1, WDR5. The experiment can be described thus: Surface Plasmon Resonance (SPR) assay. Also noted: Full length WDR5 with an N-terminal His tag and C-terminal AviTag; His tag (N); made in house; host or cells: E. coli. The note with it: read-out: SPR Kd. Format: binding. The essentials:
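Full-length biotinylated WDR5 (N-His, C-AviTag, E. coli) captured (~3000 RU) on streptavidin SA chip; Biacore T200. HBS-EP pH 7.4 plus 5% DMSO running buffer, 40 μl/min.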

pEC50, pIC50, pKd: −log10 of the molar value.

As usually defined, the pIC50 is the negative decadic logarithm of the IC50, by convention in mol/L. For orientation: pEC50 means the negative decadic logarithm of the EC50, by convention in mol/L. The term pKd denotes the Kd on a negative log10 scale, so that one unit is a factor of ten.

`C[C@H]1CN(c2cc(F)c(C3=CCN(c4ncc(F)cn4)CC3)c(F)c2NC(=O)c2c[nH]c(=O)cc2C(F)(F)F)CCN1C` [Example 82, (S)—N-(6-(3,4-dimethylpiperazin-1-yl)-2,4-difluoro-3-(1-(5-fluoropyrimidin-2-yl)-1,2,3,6-tetrahydropyridin-4-yl)phenyl)-6-oxo-4-(trifluoromethyl)-1,6-dihydropyridine-3-carboxamide]: at WDR5 [1], the pIC50 was 7.80. The pEC50 with MV4-11 cells is 7.28. Also, the negative-log Kd (pKd) on WDR5 [2] was 8.91.
The corresponding values for `C[C@H]1CN(c2cc(F)c(C3=CCCN(c4ncc(F)cn4)C3)c(F)c2NC(=O)c2c[nH]c(=O)cc2C(F)F)CCN1C` [Example 83, (S)-4-(difluoromethyl)-N-(6-(3,4-dimethylpiperazin-1-yl)-2,4-difluoro-3-(1-(5-fluoropyrimidin-2-yl)-1,2,5,6-tetrahydropyridin-3-yl)phenyl)-6-oxo-1,6-dihydropyridine-3-carboxamide] are 7.81, 6.42 and 8.94.
Consider `C[C@H]1CN(c2cc(F)c(C3=CCCN(c4ncc(F)cn4)C3)c(F)c2NC(=O)c2c[nH]c(=O)cc2C(F)(F)F)CCN1C` [Example 84, (S)—N-(6-(3,4-dimethylpiperazin-1-yl)-2,4-difluoro-3-(1-(5-fluoropyrimidin-2-yl)-1,2,5,6-tetrahydropyridin-3-yl)phenyl)-6-oxo-4-(trifluoromethyl)-1,6-dihydropyridine-3-carboxamide], for which, on WDR5 [1], the pIC50 is 7.78. The pEC50 in the experiment on MV4-11 cells is 6.79. Also, the negative logarithm of the Kd (pKd) at WDR5 [2] was 8.84.
The corresponding values for `C[C@@H]1CN(c2ncc(-c3c(F)cc(N4CCN(C)[C@@H](C)C4)c(NC(=O)c4c[nH]c(=O)cc4C(F)(F)F)c3F)cn2)C[C@@H](C)O1` [Example 85, N-(3-(2-((2R,6R)-2,6-dimethylmorpholino)pyrimidin-5-yl)-6-((S)-3,4-dimethylpiperazin-1-yl)-2,4-difluorophenyl)-6-oxo-4-(trifluoromethyl)-1,6-dihydropyridine-3-carboxamide] are 7.86, 7.99 and 8.91.
The corresponding values for `C[C@@H]1CN(c2ncc(-c3c(F)cc(N4C[C@@H](C)N(C)[C@@H](C)C4)c(NC(=O)c4c[nH]c(=O)cc4C(F)(F)F)c3F)cn2)C[C@@H](C)O1` [Example 86, N-(3-(2-((2R,6R)-2,6-dimethylmorpholino)pyrimidin-5-yl)-2,4-difluoro-6-((3S,5R)-3,4,5-trimethylpiperazin-1-yl)phenyl)-6-oxo-4-(trifluoromethyl)-1,6-dihydropyridine-3-carboxamide] are 7.88, 7.98 and 9.06.
In the case of `C[C@H]1CN(c2ncc(-c3c(F)cc(N4CCN(C)[C@@H](C)C4)c(NC(=O)c4c[nH]c(=O)cc4C(F)(F)F)c3F)cn2)C[C@H](C)O1` [Example 87, N-(3-(2-((2S,6S)-2,6-dimethylmorpholino)pyrimidin-5-yl)-6-((S)-3,4-dimethylpiperazin-1-yl)-2,4-difluorophenyl)-6-oxo-4-(trifluoromethyl)-1,6-dihydropyridine-3-carboxamide], on WDR5 [1], the pIC50 was 8.01. Moreover, the pEC50 in the experiment on MV4-11 cells is 7.71. Also, the pKd at WDR5 [2] is 8.83.
The corresponding values for `C[C@@H]1CN(c2cc(F)c(-c3cnc(N4C[C@H](C)O[C@@H](C)C4)nc3)c(F)c2NC(=O)c2c[nH]c(=O)cc2C(F)(F)F)C[C@H](C)N1C` [Example 88, N-(3-(2-((2S,6S)-2,6-dimethylmorpholino)pyrimidin-5-yl)-2,4-difluoro-6-((3S,5R)-3,4,5-trimethylpiperazin-1-yl)phenyl)-6-oxo-4-(trifluoromethyl)-1,6-dihydropyridine-3-carboxamide] are 7.86, 8.02 and 8.60.
The corresponding values for `C[C@H]1CN(c2cc(F)c(-c3cnc(N4C[C@H]5CC[C@@H](C4)O5)nc3)c(F)c2NC(=O)c2c[nH]c(=O)cc2C(F)(F)F)CCN1C` [Example 89, N-(3-(2-((1R,5S)-8-oxa-3-azabicyclo[3.2.1]octan-3-yl)pyrimidin-5-yl)-6-((S)-3,4-dimethylpiperazin-1-yl)-2,4-difluorophenyl)-6-oxo-4-(trifluoromethyl)-1,6-dihydropyridine-3-carboxamide] are 7.90, 7.51 and 9.08.
The corresponding values for `C[C@@H]1CN(c2cc(F)c(-c3cnc(N4C[C@H]5CC[C@@H](C4)O5)nc3)c(F)c2NC(=O)c2c[nH]c(=O)cc2C(F)(F)F)C[C@H](C)N1C` [Example 90, N-(3-(2-((R,5S)-8-oxa-3-azabicyclo[3.2.1]octan-3-yl)pyrimidin-5-yl)-2,4-difluoro-6-((3S,5R)-3,4,5-trimethylpiperazin-1-yl)phenyl)-6-oxo-4-(trifluoromethyl)-1,6-dihydropyridine-3-carboxamide] are 7.82, 7.52 and 9.05.
With `C[C@H]1CN(c2cc(F)c(C3=CCN(c4ncc(F)cn4)C3)c(F)c2NC(=O)c2c[nH]c(=O)cc2C(F)F)CCN1C` [Example 91, (S)-4-(difluoromethyl)-N-(6-(3,4-dimethylpiperazin-1-yl)-2,4-difluoro-3-(1-(5-fluoropyrimidin-2-yl)-2,5-dihydro-1H-pyrrol-3-yl)phenyl)-6-oxo-1,6-dihydropyridine-3-carboxamide], the pIC50 on WDR5 [1] was 7.80. For the same compound, the negative-log EC50 (pEC50) in the experiment with MV4-11 cells was 7.42. The pKd on WDR5 [2] was 8.81.
The corresponding values for `C[C@H]1CN(c2cc(F)c(C3=CCN(C(=O)OC4(C)CCC4)CC3)c(F)c2NC(=O)c2c[nH]c(=O)cc2C(F)F)CCN1C` [Example 92, 1-Methylcyclobutyl(S)-4-(3-(4-(difluoromethyl)-6-oxo-1,6-dihydropyridine-3-carboxamido)-4-(3,4-dimethylpiperazin-1-yl)-2,6-difluorophenyl)-3,6-dihydropyridine-1(2H)-carboxylate] are 7.81, 7.64 and 8.55.
Take `C[C@H]1CN(c2cc(F)c(C3=CCN(C(=O)OC4(C)CCC4)CC3)c(F)c2NC(=O)c2c[nH]c(=O)cc2C(F)(F)F)CCN1C` [Example 93, 1-Methylcyclobutyl(S)-4-(4-(3,4-dimethylpiperazin-1-yl)-2,6-difluoro-3-(6-oxo-4-(trifluoromethyl)-1,6-dihydropyridine-3-carboxamido)phenyl)-3,6-dihydropyridine-1(2H)-carboxylate]: at WDR5 [1], the pIC50 is 7.81. Besides, the negative-log EC50 (pEC50) in the experiment on MV4-11 cells was 7.71. The pKd on WDR5 [2] was 8.67.
On to `C[C@H]1CN(c2cc(F)c(C3=CCCN(C(=O)OC4(C)CCC4)C3)c(F)c2NC(=O)c2c[nH]c(=O)cc2C(F)F)CCN1C` [Example 94, 1-Methylcyclobutyl (S)-5-(3-(4-(difluoromethyl)-6-oxo-1,6-dihydropyridine-3-carboxamido)-4-(3,4-dimethylpiperazin-1-yl)-2,6-difluorophenyl)-3,6-dihydropyridine-1(2H)-carboxylate], for which the negative logarithm of the IC50 (pIC50) on WDR5 [1] was 7.76. Besides, the pEC50 in the experiment with MV4-11 cells is 7.03. Moreover, the negative-log Kd (pKd) on WDR5 [2] is 8.66.
The corresponding values for `C[C@H]1CN(c2cc(F)c(C3=CCN(c4ncc(C#N)s4)C3)c(F)c2NC(=O)c2c[nH]c(=O)cc2C(F)F)CCN1C` [Example 95, (S)—N-(3-(1-(5-cyanothiazol-2-yl)-2,5-dihydro-1H-pyrrol-3-yl)-6-(3,4-dimethylpiperazin-1-yl)-2,4-difluorophenyl)-4-(difluoromethyl)-6-oxo-1,6-dihydropyridine-3-carboxamide] are 7.86, 7.02 and 9.10.
The corresponding values for `C[C@H]1CN(c2cc(F)c(C3=CCN(c4ncc(C#N)s4)C3)c(F)c2NC(=O)c2c[nH]c(=O)cc2C(F)(F)F)CCN1C` [Example 96, (S)—N-(3-(1-(5-cyanothiazol-2-yl)-2,5-dihydro-1H-pyrrol-3-yl)-6-(3,4-dimethylpiperazin-1-yl)-2,4-difluorophenyl)-6-oxo-4-(trifluoromethyl)-1,6-dihydropyridine-3-carboxamide] are 7.92, 7.15 and 9.29.
The corresponding values for `C[C@H]1CN(c2cc(F)c(C3=CCN(c4ncc(C#N)s4)CC3)c(F)c2NC(=O)c2c[nH]c(=O)cc2C(F)F)CCN1C` [Example 97, (S)—N-(3-(1-(5-cyanothiazol-2-yl)-1,2,3,6-tetrahydropyridin-4-yl)-6-(3,4-dimethylpiperazin-1-yl)-2,4-difluorophenyl)-4-(difluoromethyl)-6-oxo-1,6-dihydropyridine-3-carboxamide] are 7.87, 6.86 and 9.11.
As for `C[C@H]1CN(c2cc(F)c(C3=CCN(c4ncc(C#N)s4)CC3)c(F)c2NC(=O)c2c[nH]c(=O)cc2C(F)(F)F)CCN1C` [Example 98, (S)—N-(3-(1-(5-cyanothiazol-2-yl)-1,2,3,6-tetrahydropyridin-4-yl)-6-(3,4-dimethylpiperazin-1-yl)-2,4-difluorophenyl)-6-oxo-4-(trifluoromethyl)-1,6-dihydropyridine-3-carboxamide], the pIC50 on WDR5 [1] is 7.88. The pEC50 in the experiment with MV4-11 cells is 7.01. For the same compound, the negative logarithm of the Kd (pKd) at WDR5 [2] was 9.11.
